# From publication PMC10005332, “It Takes Two to Tango, Part II: Synthesis of A-Ring Functionalised Quinones Containing Two Redox-Active Centres with Antitumour Activities” (Molecules, 2023)
# pIC50: −log10 of the molar value. Where two headings read alike, the source gives them in different places.
# How the values were obtained:
# [1] = MTT cytotoxicity assay, L929 control line; format: cell-based, mouse; conditions: mouse, L929 fibroblast cells (non-tumoral control line), 72 h exposure, read-out: Cytotoxic activity IC50 (95% CI) L929
# Method: (§1) In this study, the IC50 was obtained in micromolar concentrations, using the colourimetric MTT (3-(4,5-dimethylthiazol-2-yl)-2,5-diphenyl tetrazolium bromide)) assay, and doxorubicin was used as the positive control. […] The activity against the non-tumoural murine fibroblast cell line L929 was also evaluated in order to study the cytotoxicity behaviour of each compound and to understand their respective relative selectivity. The selectivity index was obtained using the ratio of measured cytotoxicity between the L929 cell line and each of the cancer cell lines, and the results are presented in Table 2.
# (§2) The in vitro cytotoxicity activity of the compounds was evaluated by the colorimetric MTT (3-(4,5-dimethylthiazol-2-yl)-2,5-diphenyl tetrazolium bromide)) assay using the following tumor cell lines: HCT-116 (colon carcinoma), PC3 (prostate), SNB-19 (glioblastoma), K-562 (myelogenous leukaemia), HL-60 (human promyelocytic leukaemia), B16 (murine melanoma), A549 (human lung carcinoma), KG1 (human acute myeloid leukaemia), and RAJI (human Burkitt’s lymphoma), which were provided by the National Cancer Institute (Bethesda, MD, USA). The L929 cell line (mouse fibroblast L cells NCTC clone 929) employed in this study as a control cell line was obtained from the American Type Culture Collection (Manassas, VA, USA). The cell lines (Table S4) were maintained in flasks containing RPMI 1640 or DMEM medium supplemented with 10% bovive fetal sérum, 100 U/mL penicillin, and 100 μg/mL streptomycin at 37 °C and in 5% CO2 atmosphere. The compounds tested were dissolved in DMSO. Doxorubicin served as the positive control. Cell treatments were performed with three replicates and the cells were mycoplasma free. After 72 h incubation, 100 μL of MTT solution (0.5 mg/mL) was added to each well, and the cells were incubated for 3 h. The supernatant was removed and 100 μL of DMSO was added and the absorbance at 595 nm was measured using Victor Nivo Multimode plate reader (PerkinElmer, Waltham, MA, USA). The absorbances obtained were used to calculate the IC50 values by nonlinear regression employing appropriate statistical software.
# (§3) The in vitro cytotoxicity activity of compounds was evaluated by the colorimetric MTT (3-(4,5-dimethylthiazol-2-yl)-2,5-diphenyl tetrazolium bromide)) assay using tumor cell lines: HCT-116 (colon carcinoma), PC3 (prostate), SNB-19 (glioblastoma), K-562 (myelogenous leukaemia), HL-60 (human promyelocytic leukaemia), B16 (murine melanoma), A549 (human lung carcinoma), KG1 (human acute myeloid leukaemia) and RAJI (human Burkitt's lymphoma), which were provided by the National Cancer Institute (Bethesda, MD, USA). The L929 cell line (mouse fibroblast L cells NCTC clone 929) employed in this study as a control cell line was obtained from the American Type Culture […]
# (§4) Collection (Manassas, VA, USA). Cell lines (Table 01) were maintained in flasks containing RPMI 1640 or DMEM medium supplemented with 10% bovive fetal sérum, 100 U/mL penicillin, and 100 μg/mL streptomycin at 37 °C and 5% CO2 atmosphere.
# (§5) Compounds tested were dissolved in DMSO. Doxorubicin served as positive control. Cell treatments were performed with three replicates and cells were mycoplasma-free. After 72 h incubation, 100 μL of MTT solution (0.5 mg/mL) was added to each well, and cells were incubated for 3 h. The supernatant was removed and 100 μL of DMSO was added and the absorbance at 595 nm was measured using Victor Nivo Multimode plate reader
# [2] = test system: L929 cells (non-tumoral mouse fibroblast); experiment: MTT cytotoxicity assay, L929 control line; format: cell-based; conditions: 72 h exposure, read-out: Cytotoxic activity IC50 (95% CI) L929
# Method: as §1, §2, §3, §4, §5
# [3] = test system: K-562 (human chronic myeloid leukaemia); experiment: MTT cytotoxicity assay, K-562; format: cell-based; conditions: for pIC50: Homo sapiens, K562, MTT, 72 h exposure, three independent experiments, read-out: Cytotoxic activity IC50 (95% CI) K-562; for Selectivity index K-562: ratio of cytotoxicity L929 / K-562
# Method: as §1, §2, §3, §4, §5
# [4] = test system: KG1 (human acute myeloid leukaemia); experiment: MTT cytotoxicity assay, KG1; format: cell-based; conditions: for pIC50: Homo sapiens, MTT, 72 h exposure, three independent experiments, read-out: Cytotoxic activity IC50 (95% CI) KG1; for Selectivity index KG1: ratio of cytotoxicity L929 / KG1
# Method: as §1, §2, §3, §4, §5
# [5] = test system: A549 (human lung carcinoma); experiment: MTT cytotoxicity assay, A549; format: cell-based; conditions: for pIC50: Homo sapiens, A549, MTT, 72 h exposure, three independent experiments, read-out: Cytotoxic activity IC50 (95% CI) A549; for Selectivity index A549: ratio of cytotoxicity L929 / A549
# Method: as §1, §2, §3, §4, §5
# [6] = test system: HL60 (human pro-myelocytic leukaemia); experiment: MTT cytotoxicity assay, HL60; format: cell-based; conditions: for pIC50: Homo sapiens, HL-60, 72 h, MTT, 72 h exposure, three independent experiments, read-out: Cytotoxic activity IC50 (95% CI) HL60; for Selectivity index HL60: ratio of cytotoxicity L929 / HL60
# Method: as §1, §2, §3, §4, §5
# [7] = test system: SNB-19 (human astrocytoma); experiment: MTT cytotoxicity assay, SNB-19; format: cell-based; conditions: for pIC50: Homo sapiens, SNB-19, MTT, 72 h exposure, three independent experiments, read-out: Cytotoxic activity IC50 (95% CI) SNB-19; for Selectivity index SNB-19: ratio of cytotoxicity L929 / SNB-19
# Method: as §1, §2, §3, §4, §5
# [8] = test system: RAJI (human Burkitt’s lymphoma); experiment: MTT cytotoxicity assay, RAJI; format: cell-based; conditions: for pIC50: MTT, 72 h exposure, three independent experiments, read-out: Cytotoxic activity IC50 (95% CI) RAJI; for Selectivity index RAJI: ratio of cytotoxicity L929 / RAJI
# Method: as §1, §2, §3, §4, §5
# B16 (murine melanoma) = experiment: MTT cytotoxicity assay, B16; format: cell-based; conditions: for pIC50: Mus musculus, MTT, 72 h exposure, three independent experiments, read-out: Cytotoxic activity IC50 (95% CI) B16; for Selectivity index B16: ratio of cytotoxicity L929 / B16
# Method: as §1, §2, §3, §4, §5
# [9] = test system: PC3 (human prostate adenocarcinoma); experiment: MTT cytotoxicity assay, PC3; format: cell-based; conditions: for pIC50: Homo sapiens, MTT, 72 h exposure, three independent experiments, read-out: Cytotoxic activity IC50 (95% CI) PC3; for Selectivity index PC3: ratio of cytotoxicity L929 / PC3
# Method: as §1, §2, §3, §4, §5
# [10] = test system: HCT-116 (human colorectal carcinoma); experiment: MTT cytotoxicity assay, HCT-116; format: cell-based; conditions: for pIC50: Homo sapiens, HCT-116, 72 h, MTT, 72 h exposure, three independent experiments, read-out: Cytotoxic activity IC50 (95% CI) HCT-116; for Selectivity index HCT-116: ratio of cytotoxicity L929 / HCT-116
# Method: as §1, §2, §3, §4, §5
Structure (SMILES),IC50 at 72 h [1],pIC50 [3],Selectivity index K-562 [3],pIC50 [4],Selectivity index KG1 [4],pIC50 [5],Selectivity index A549 [5],pIC50 [6],Selectivity index HL60 [6],pIC50 [7],Selectivity index SNB-19 [7],"pIC50 ([8]; Homo sapiens, Raji, 72 h)",Selectivity index RAJI [8],pIC50 (B16 (murine melanoma)),Selectivity index B16 (B16 (murine melanoma)),pIC50 [9],Selectivity index PC3 [9],pIC50 [10],Selectivity index HCT-116 [10],further results
"C#CCNC1=CC(=O)c2c(O)cccc2C1=O [Compound 18b, 5-hydroxy-2-(prop-2-yn-1-ylamino)naphthalene-1,4-dione]",24 µM,4.60,1.0,< 4.00,0.2,4.82,1.6,< 4.00,0.2,4.82,1.6,4.63,1.0,5.06,2.8,< 4.00,0.2,–,–,pIC50 [2]: 4.62
"COc1cccc2c1C(=O)C(NCc1cn(C3C4=C(OC3(C)C)c3ccccc3C(=O)C4=O)nn1)=CC2=O (stereo not shown) [Compound 19c, 3-(4-(((8-methoxy-1,4-dioxo-1,4-dihydronaphthalen-2-yl)amino)methyl)-1H-1,2,3-triazol-1-yl)-2,2-dimethyl-2,3-dihydronaphtho[1,2-b]furan-4,5-dione]",9.17 µM,5.51,3.0,5.32,1.9,5.51,3.0,5.97,8.6,5.09,1.1,6.05,9.9,5.76,5.3,5.46,2.6,5.80,5.7,pIC50 [8]: 6.03
"C#CCNC1=CC(=O)c2cccc(OCc3ccccc3)c2C1=O [Compound 18d, 8-benzyloxy-2-(prop-2-yn-1-ylamino)naphthalene-1,4-dione]",> 100 µM,< 4.00,–,< 4.00,–,< 4.00,–,4.50,3.1,< 4.00,–,< 4.00,–,4.45,2.8,< 4.00,–,< 4.00,–,–
"C#CCNC1=CC(=O)c2cc3ccccc3cc2C1=O [Compound 18e, 2-(prop-2-yn-1-ylamino)anthracene-1,4-dione]",> 100 µM,< 4.00,–,< 4.00,–,< 4.00,–,< 4.00,–,< 4.00,–,< 4.00,–,< 4.00,–,< 4.00,–,< 4.00,–,–
"O=C1C(=O)c2ccccc2C2=C1CC(Cn1cc(CNC3=CC(=O)c4c(I)cccc4C3=O)nn1)O2 (stereo not shown) [Compound 20a, 2-((4-(((5-iodo-1,4-dioxo-1,4-dihydronaphthalen-2-yl)amino)methyl)-1H-1,2,3-triazol-1-yl)methyl)-2,3-dihydronaphtho[1,2-b]furan-4,5-dione]",5.59 µM,5.25,1.0,4.60,0.2,4.81,0.4,5.55,2.0,5.07,0.7,5.55,2.0,5.38,1.3,5.01,0.6,5.26,1.0,–
"CC1(C)OC2=C(CC1Cn1cc(CNC3=CC(=O)c4cccc(OCc5ccccc5)c4C3=O)nn1)C(=O)C(=O)c1ccccc12 (stereo not shown) [Compound 21d, 3-((4-(((8-benzyloxy-1,4-dioxo-1,4-dihydronaphthalen-2-yl)amino)methyl)-1H-1,2,3-triazol-1-yl)methyl)-2,2-dimethyl-3,4-dihydro-2H-benzo[h]chromene-5,6-dione]",5.27 µM,5.00,0.5,4.94,0.5,5.58,2.0,6.05,5.9,5.42,1.4,4.54,0.2,5.29,1.0,5.01,0.5,5.38,1.3,–
"COc1cccc2c1C(=O)C(NCc1cn(CC3CC4=C(O3)c3ccccc3C(=O)C4=O)nn1)=CC2=O (stereo not shown) [Compound 20c, 2-((4-(((8-methoxy-1,4-dioxo-1,4-dihydronaphthalen-2-yl)amino)methyl)-1H-1,2,3-triazol-1-yl)methyl)-2,3-dihydronaphtho[1,2-b]furan-4,5-dione]",> 100 µM,< 4.00,–,4.40,2.5,4.61,4.1,4.42,2.6,4.30,2.0,4.43,2.7,4.36,2.3,< 4.00,–,< 4.00,–,–
"CC1(C)OC2=C(CC1Cn1cc(CNC3=CC(=O)c4c(O)cccc4C3=O)nn1)C(=O)C(=O)c1ccccc12 (stereo not shown) [Compound 21b, 3-((4-(((5-hydroxy-1,4-dioxo-1,4-dihydronaphthalen-2-yl)amino)methyl)-1H-1,2,3-triazol-1-yl)methyl)-2,2-dimethyl-3,4-dihydro-2H-benzo[h]chromene-5,6-dione]",2.07 µM,5.38,0.5,5.52,0.7,5.77,1.2,5.65,0.9,5.37,0.5,5.70,1.0,5.40,0.5,5.41,0.5,5.79,1.3,–
